Patent publication US7273866B2, “2-aryl thiazole derivatives as KCNQ modulators” (Bristol-Myers Squibb Company, priority 2002, dated 2007)

Tested on: KCNQ channels
Test: Thallium flux assay for KCNQ channel openers
Format: cell-based
Settings: HEK-293 cells stably transfected with a KCNQ family member; for Min. conc. response: minimal active concentration: lowest concentration giving signal amplitude >= four standard deviations of negative controls; for EC50: thallium flux, 10 point concentration series
Method: Thallium Flux Assay for KCNQ channel Openers. The thallium assay is a modification of that published by Weaver and is referenced in its entirety (Weaver, C. D. WO 02/31508, 2002).
Approximately 20,000 cells/well of an HEK-293 cell line stably transfected with one of the members of the KCNQ family were plated into clear-bottom, black-walled, poly-D-lysine coated, 384 well assay plates in 20 μl/well of low chloride plating medium. Low chloride plating medium was composed of the following: sodium gluconate, 109 mM; potassium gluconate, 5.4 mM; hemi-calcium gluconate, 3.6 mM; magnesium sulfate, 0.8 mM; sodium bicarbonate, 26.2 mM; sodium phosphate monobasic, 1.2 mM; glutamine, 2 mM; glucose, 5 mM; 4-(2-hydroxyethyl)-1-piperazineethanesulfonic acid (HEPES) (pH 7.3) 10 mM, MEM vitamin solution (10× concentration of vitamins, Gibco/LifeTechnologies 11120-052) and MEM amino acid solution (1× concentration of amino acids, Gibco/LifeTechnologies 11130-051).
Following overnight incubation in a 5% CO2 incubator at 37° C., the cells in the plates were loaded with 20 μl/well of a dye loading solution containing the commercially available thallium-sensitive fluorescent dye BTC-AM, the acetomethoxy ester of BTC (see U.S. Pat. No. 5,501,980) (2 μM) and pluronic acid F-127 (Molecular Probes P 6867) (0.02% w/v) in chloride free assay buffer. Chloride free assay buffer was composed of the following: sodium gluconate, 140 mM; potassium gluconate, 2.5 mM; hemi-calcium gluconate, 6 mM; hemi-magnesium gluconate, 2 mM; glucose, 5 mM; HEPES (pH 7.3), 10 mM.
Following incubation in the dye loading solution for from 45-90 min at room temperature, the dye loading solution was removed by aspiration and replaced with 40 μl/well of chloride free assay buffer.
Prior to addition to cell plates, test compound and standard compounds were dissolved in DMSO to 3 mM concentration. Compounds were then diluted from the 3 mM stock to 100-fold over the final assay concentration in DMSO. Finally, compounds in DMSO were diluted from 100-fold over the final assay concentration to 5-fold over the final assay concentration in chloride free assay buffer.
Ten μl/well of compounds at 5-fold over the final assay concentration were then added to the cell plates. This represents a 1:5 dilution, yielding the final test concentration. The wells used for test compounds were A1-P20. Wells A21-P22 contained a standard opener and a maximally efficacious concentration (positive control). Wells A23-P24 contained chloride free assay buffer containing 1% DMSO (negative control).
Following addition of test compounds, the plates were loaded onto the Molecular Devices FLIPR. The 488 nm line of the argon laser was used to excite the BTC and the emission filter was a 540(+/−30) nm. Images were collected at 1 Hz. Ten seconds of baseline were collected and then the FLIPR was used to add 13 μl/well of a stimulus buffer composed of 7.5 mM Tl2SO4 in chloride free assay buffer. Images were collected for an additional 60 seconds.
For data analysis, the amplitude of the average of the negative controls was subtracted from all wells. The amplitudes of the test compounds were then compared to the value of four standard deviations of the negative control wells. The lowest concentration of a test compound sufficient to generate a signal amplitude greater than or equal to four standard deviations from the amplitude of the negative controls was defined as the minimal active concentration.
For generating EC50 values, compounds were serially diluted in 1:3 volume increments to produce a 10 point concentration series. EC50 values were calculated by fitting the resulting amplitudes to a single-site logistic equation. EC50 was defined as the concentration of test compound required to yield 50% of the maximal response. Maximal response (Maximal opening) was the largest signal amplitude divided by the negative control amplitude generated by any concentration of a test compound. […]

EC50	Compound	Min. conc. response
50 to 1000 nM	COc1ccc(-c2nc(C(F)(F)F)c(C(=O)NC(C)c3cccc(OC(F)(F)F)c3)s2)cc1OC (centres unmarked) [Example 29, 2-(3,4-dimethoxyphenyl)-4-(trifluoromethyl)-N-[1-[3-(trifluoromethoxy)phenyl]ethyl]-5-thiazolecarboxamide]	3 µM
50 to 1000 nM	COc1ccc(-c2nc(C(F)(F)F)c(C(=O)NC(C)c3cccc(OC(F)(F)F)c3)s2)c(OC)c1 (centres unmarked) [Example 30, 2-(2,4-dimethoxyphenyl)-4-(trifluoromethyl)-N-[1-[3-(trifluoromethoxy)phenyl]ethyl]-5-thiazolecarboxamide]	3 µM
1000 to 20000 nM	COc1ccc(-c2nc(C(F)(F)F)c(C(=O)N[C@@H](C)c3cccc(N4CCOCC4)c3)s2)c(OC)c1 [Example 31, 2-(2,4-dimethoxyphenyl)-4-(trifluoromethyl)-N-[1-[3-(4-morpholinyl)phenyl]ethyl]-5-thiazolecarboxamide]	3 µM
< 50 nM	COc1ccccc1-c1nc(C(F)(F)F)c(C(=O)NC(C)c2cccc(N3CCCCC3)c2)s1 (centres unmarked) [Example 32, 2-(2-methoxyphenyl)-4-(trifluoromethyl)-N-[1-[3-(1-piperidinyl)phenyl]ethyl]-5-thiazolecarboxamide]	0.3 µM
50 to 1000 nM	COc1ccccc1-c1nc(C(F)(F)F)c(C(=O)NC(C)c2cccc(N3CCCC3)c2)s1 (centres unmarked) [Example 33, 2-(2-methoxyphenyl)-4-(trifluoromethyl)-N-[1-[3-(1-pyrrolidinyl)phenyl]ethyl]-5-thiazolecarboxamide]	3 µM
< 50 nM	COc1ccccc1-c1nc(C(F)(F)F)c(C(=O)NC(C)c2cccc(N(C)Cc3ccco3)c2)s1 (centres unmarked) [Example 34, 2-(2-methoxyphenyl)-4-(trifluoromethyl)-N-[1-[3-[(2-furanylmethyl)methylamino]phenyl]ethyl]-5-thiazolecarboxamide]	0.3 µM
50 to 1000 nM	CC(NC(=O)c1sc(-c2ccccc2F)nc1C(F)(F)F)c1cccc(N(C)Cc2ccco2)c1 (centres unmarked) [Example 35, 2-(2-fluorophenyl)-4-(trifluoromethyl)-N-[1-[3-[(2-furanylmethyl)methylamino]phenyl]ethyl]-5-thiazolecarboxamide]	0.3 µM
1000 to 20000 nM	COc1ccc(-c2nc(C(F)(F)F)c(C(=O)NC(C)c3cccc(CN4CCCC4)c3)s2)cc1OC (centres unmarked) [Example 36, 2-(3,4-dimethoxyphenyl)-4-(trifluoromethyl)-N-[1-[3-[(1-pyrrolidinyl)methyl]phenyl]ethyl]-5-thiazolecarboxamide]	10 µM
1000 to 20000 nM	CC(NC(=O)c1sc(-c2ccccc2F)nc1C(F)(F)F)c1cccc(CN2CCOCC2)c1 (centres unmarked) [Example 37, 2-(2-fluorophenyl)-4-(trifluoromethyl)-N-[1-[3-[(4-morpholinyl)methyl]phenyl]ethyl]-5-thiazolecarboxamide]	3 µM
1000 to 20000 nM	CCN(CC)Cc1cccc(C(C)NC(=O)c2sc(-c3cccc4ccccc34)nc2C(F)(F)F)c1 (centres unmarked) [Example 38, 2-(1-naphthyl)-4-(trifluoromethyl)-N-[1-[3-[(diethylamino)methyl]phenyl]ethyl]-5-thiazolecarboxamide]	30 µM
1000 to 20000 nM	COc1ccccc1-c1nc(C(F)(F)F)c(C(=O)NC(C)c2cccc(N)c2)s1 (centres unmarked) [Example 39, 2-(2-methoxyphenyl)-4-(trifluoromethyl)-N-[1-(3-aminophenyl)ethyl]-5-thiazolecarboxamide]	10 µM
1000 to 20000 nM	COc1ccccc1-c1nc(C(F)(F)F)c(C(=O)NC(C)c2cccc(NC(=N)N)c2)s1 (centres unmarked) [Example 40, 2-(2-methoxyphenyl)-4-(trifluoromethyl)-N-[1-[3-(guanidinyl)phenyl]ethyl]-5-thiazolecarboxamide]	30 µM

Further lines, the molecule ahead of its results:

Compound	EC50	Min. conc. response
COc1cccc(-c2nc(C(F)(F)F)c(C(=O)N[C@@H](C)c3cccc(OC(F)(F)F)c3)s2)c1 (stereo in doubt) [Example 24, 2-(3-methoxyphenyl)-4-(trifluoromethyl)-N-[1-[3-(trifluoromethoxy)phenyl]ethyl]-5-thiazolecarboxamide]	50 to 1000 nM	3 µM
COc1cccc([C@H](C)NC(=O)c2sc(-c3cccc(N4CCOCC4)c3)nc2C(F)(F)F)c1 (stereo in doubt) [Example 99]	–	3 µM
CC(NC(=O)c1sc(-c2ccc(F)cc2)nc1C(F)(F)F)c1cccc(OC(F)(F)F)c1 (centres unmarked) [Example 17, 2-(4-fluorophenyl)-4-(trifluoromethyl)-N-[1-[3-(trifluoromethoxy)phenyl]ethyl]-5-thiazolecarboxamide]	< 50 nM	0.3 µM
COc1ccccc1-c1nc(C(F)(F)F)c(C(=O)NC(C)c2cccc(OC(F)(F)F)c2)s1 (centres unmarked) [Example 18, 2-(2-methoxyphenyl)-4-(trifluoromethyl)-N-[1-[3-(trifluoromethoxy)phenyl]ethyl]-5-thiazolecarboxamide]	< 50 nM	0.3 µM
COc1ccccc1-c1nc(C(F)(F)F)c(C(=O)NC(C)c2cccc(C(F)(F)F)c2)s1 (centres unmarked) [Example 19, 2-(2-methoxyphenyl)-4-(trifluoromethyl)-N-[1-[3-(trifluoromethyl)phenyl]ethyl]-5-thiazolecarboxamide]	< 50 nM	3 µM
CC(NC(=O)c1sc(-c2ccc3c(c2)OCO3)nc1C(F)(F)F)c1cccc(OC(F)(F)F)c1 (centres unmarked) [Example 20, 2-(3,4-dioxolanylphenyl)-4-(trifluoromethyl)-N-[1-[3-(trifluoromethoxy)phenyl]ethyl]-5-thiazolecarboxamide]	1000 to 20000 nM	0.3 µM
CC(NC(=O)c1sc(-c2ccccc2F)nc1C(F)(F)F)c1cccc(C(F)(F)F)c1 (centres unmarked) [Example 22, 2-(2-fluorophenyl)-4-(trifluoromethyl)-N-[1-[3-(trifluoromethyl)phenyl]ethyl]-5-thiazolecarboxamide]	< 50 nM	0.3 µM
COc1ccccc1-c1nc(C(F)(F)F)c(C(=O)N[C@@H](C)c2cccc(N3CCOCC3)c2)s1 [Example 23, 2-(2-methoxyphenyl)-4-(trifluoromethyl)-N-[1-[3-(1-morpholinyl)phenyl]ethyl]-5-thiazolecarboxamide]	50 to 1000 nM	3 µM
COc1ccccc1-c1nc(C(F)(F)F)c(C(=O)NC(C)c2cccc(N(C)C)c2)s1 (centres unmarked) [Example 25, 2-(2-methoxyphenyl)-4-(trifluoromethyl)-N-[1-[3-(dimethylamino)phenyl]ethyl]-5-thiazolecarboxamide]	1000 to 20000 nM	3 µM
CC(NC(=O)c1sc(-c2ccccc2F)nc1C(F)(F)F)c1cccc(N(C)C)c1 (centres unmarked) [Example 26, 2-(2-fluorophenyl)-4-(trifluoromethyl)-N-[1-[3-(dimethylamino)phenyl]ethyl]-5-thiazolecarboxamide]	50 to 1000 nM	3 µM
COc1ccccc1-c1nc(C(F)(F)F)c(C(=O)NCc2cccc(F)c2)s1 [Example 27, 2-(2-methoxyphenyl)-4-(trifluoromethyl)-N-(3-fluorophenyl)methyl-5-thiazolecarboxamide]	1000 to 20000 nM	3 µM
COc1ccc(-c2nc(C(F)(F)F)c(C(=O)NC(C)c3cccc(OC(F)(F)F)c3)s2)cc1 (centres unmarked) [Example 28, 2-(4-methoxyphenyl)-4-(trifluoromethyl)-N-[1-[3-(trifluoromethoxy)phenyl]ethyl]-5-thiazolecarboxamide]	1000 to 20000 nM	10 µM
